In patent US11241579B2, “Monitoring and modulation of parasympathetic nervous system” (THE REGENTS OF THE UNIVERSITY OF CALIFORNIA, priority 2016, dated 2022):

Legend:
[1] = test system: MNS-induced AF; details: cited from earlier work; for effect on MNS-induced AF: previous work
[2] = test system: intrinsic cardiac (IC) neurons; assay: evoked action potentials of intrinsic cardiac neurons after local drug application (intracellular recording); type: cell-based, guinea pig; details: 10^-3 M, 1- to 2-s local pressure ejection; across all groups (control, PO, PO+RCV, PO+LCV)
Experimental: Intracellular voltage recordings from IC neurons derived from explanted IC ganglia placed in 35-37° C. Krebs-Ringer solution were obtained by impaling cells with 3 M KCl-filled glass micropipettes (40- to 80-Me resistance) using an Axoclamp 2B amplifier (Molecular Devices). Data were collected, digitized, and analyzed using pClamp 10.2 (Molecular Devices). Individual neurons were used for data analysis if their resting membrane potential (RMP) was −40 mV or less and produced action potentials (APs) with an overshoot of >20 mV. Input resistance was determined using 0.1- and 0.2-nA pulses (500 ms). Neuronal soma excitability was monitored by observing the response to a series of long depolarizing current pulses (0.1-0.6 nA, 500 ms). The number of evoked APs vs. stimulus intensity was determined to assess relative changes in excitability. Afterhyperpolarization (AHP) durations were analyzed to determine the time to reach 50% of the amplitude from the peak of the AHP to the RMP.
For each cell, after characterization of the basic electrophysiological properties, induced changes in the number of evoked APs by depolarizing pulses were again assessed immediately following a 1- to 2-s application of NE (10^-3 M; Sigma) or bethanechol (a muscarinic agonist, 10^-3 M; Sigma). […]

## CC(C)(C)NC[C@H](O)COc1nsnc1N1CCOCC1 [timolol]
[1]
  effect on MNS-induced AF: modified

## NC[C@H](O)c1ccc(O)c(O)c1 [NE, norepinephrine]
[2]
  changes in IC neuronal sensitivity elicited by local application: less than that elicited by bethanecol

## CN1[C@@H]2CC[C@H]1C[C@@H](OC(=O)C(CO)c1ccccc1)C2 (stereo partly shown) [atropine]
[1]
  effect on MNS-induced AF: eliminated

## C[N+](C)(C)CCCCCC[N+](C)(C)C [Hexamethonium]
[1]; posttreatment, from 90% baseline
  number of AF responses to MNS stimulation: 10%
